Results from patent publication US8247211B2, “Glycopeptide antibiotics” (American Cyanamid Company, priority 2001, dated 2012).
≈ marks a conversion by molar mass, not a printed value.

What was measured:
Experiment in all cases: In vitro antibacterial evaluation: minimum inhibitory concentration (MIC), broth dilution method
Format in all cases: cell-based
[1] = test system: Enterococcus sp.
How it was run: (§1)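 Using Muller-Hinton II […] and an inoculum of 5×10^5 CFU/mL, antibiotic dilutions from 64 down to 0.06 μg/mL were tested following NCCLS M7-A2. The MIC is the lowest concentration inhibiting growth, including in methicillin-, penicillin- or vancomycin-resistant clinical isolates.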

[2] = test system: Staphylococcus sp.; conditions: broth dilution, 18 hours at 35° C.
How it was run: as §1

[3] = test system: Streptococcus sp.
How it was run: as §1

[4] = test system: Escherichia coli; conditions: strain GC 4560
How it was run: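 An MIC is reported for each organism as the least concentration giving inhibition, using broth dilution over 64-0.06 μg/mL with a 5×10^5 CFU/mL inoculum.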

[5] = broth dilution, inoculum 5×10^5 CFU/mL, 18 hours at 35° C.

For CCOc1cc(C2OCC3OC(OC4C(CO)OC(Oc5ccc(CC6NC(=O)C(C(C)c7ccccc7)NC(=O)CNC(=O)C(CO)NC(=O)C(C(O)C7CNC(=N)N7C7OC(CO)C(O)C(O)C7O)NC(=O)C(C(O)C7CNC(=N)N7)NC6=O)cc5)C(O)C4O)C(O)C(O)C3O2)ccc1[N+](=O)[O-] (stereo not drawn) [Example 167, Cyclo[glycyl-β-methylphenylalanyl-O-[4-O-[4,6-O-(3-ethoxy-4-nitrobenzylidene)hexopyranosyl]hexopyranosyl]tyrosyl-3-(2-iminoimidazolidin-4-yl)seryl-3-(3-hexopyranosyl-2-iminoimidazolidin-4-yl)serylseryl]], the “MIC Enterococcus avium (GC 4558)” value [1, 5] was 32 µg/mL (≈ 21.7 µM), the “MIC Enterococcus faecalis (ATCC 29212)” value [1, 5] was 32 µg/mL (≈ 21.7 µM) and the “MIC Enterococcus faecalis (GC 2242)” value [1, 5] was 32 µg/mL (≈ 21.7 µM). For the same compound, the “MIC Enterococcus faecalis (GC 2691)” value [1, 5] was 32 µg/mL (≈ 21.7 µM), the “MIC Enterococcus faecalis (GC 3059)” value [1, 5] was 32 µg/mL (≈ 21.7 µM) and the “MIC Enterococcus faecalis (GC 4552)” value [1, 5] was 32 µg/mL (≈ 21.7 µM). For the same compound, the “MIC Enterococcus faecalis (GC 4553)” value [1, 5] was 32 µg/mL (≈ 21.7 µM), the “MIC Enterococcus faecalis (GC 4554)” value [1, 5] was 32 µg/mL (≈ 21.7 µM) and the “MIC Enterococcus faecalis (GC 6189)” value [1, 5] was 32 µg/mL (≈ 21.7 µM). The “MIC Enterococcus faecium (GC 2243)” value [1, 5] was 32 µg/mL (≈ 21.7 µM), the “MIC Enterococcus faecium (GC 4556)” value [1, 5] was 32 µg/mL (≈ 21.7 µM) and the “MIC Enterococcus faecium (GC 4557)” value [1, 5] was 8 µg/mL (≈ 5.43 µM). For the same compound, the “MIC Enterococcus faecalis (ATCC 29212)” value ([1]; strain ATCC 29212) was 32 µg/mL (≈ 21.7 µM), the “MIC Enterococcus faecalis (GC 2242)” value ([1]; strain GC 2242) was 32 µg/mL (≈ 21.7 µM) and the “MIC Enterococcus faecium (GC 2243)” value ([1]; strain GC 2243) was 32 µg/mL (≈ 21.7 µM). The “MIC Enterococcus faecalis (GC 2691)” value ([1]; strain GC 2691) was 32 µg/mL (≈ 21.7 µM), the “MIC Enterococcus faecalis (GC 3059)” value ([1]; strain GC 3059) was 32 µg/mL (≈ 21.7 µM) and the “MIC Enterococcus faecalis (GC 4552)” value ([1]; strain GC 4552) was 32 µg/mL (≈ 21.7 µM). For the same compound, the “MIC Enterococcus faecalis (GC 4553)” value ([1]; strain GC 4553) was 32 µg/mL (≈ 21.7 µM), the “MIC Enterococcus faecalis (GC 4554)” value ([1]; strain GC 4554) was 32 µg/mL (≈ 21.7 µM) and the “MIC Enterococcus faecium (GC 4556)” value ([1]; strain GC 4556) was 32 µg/mL (≈ 21.7 µM). The “MIC Enterococcus faecium (GC 4557)” value ([1]; strain GC 4557) was 8 µg/mL (≈ 5.43 µM), the “MIC Enterococcus avium (GC 4558)” value ([1]; strain GC 4558) was 32 µg/mL (≈ 21.7 µM) and the “MIC Enterococcus faecalis (GC 6189)” value ([1]; strain GC 6189) was 32 µg/mL (≈ 21.7 µM). The “MIC Coagulase Negative Staphylococcus (GC 4547)” value ([2]; 5×10^5 CFU/mL) was 8 µg/mL (≈ 5.43 µM), the “MIC Coagulase Negative Staphylococcus (GC 4548)” value ([2]; 5×10^5 CFU/mL) was 8 µg/mL (≈ 5.43 µM) and the “MIC Coagulase Negative Staphylococcus (GC 4549)” value ([2]; 5×10^5 CFU/mL) was 8 µg/mL (≈ 5.43 µM). For the same compound, the “MIC Coagulase Negative Staphylococcus (GC 4551)” value ([2]; 5×10^5 CFU/mL) was 16 µg/mL (≈ 10.9 µM), the “MIC Coagulase Negative Staphylococcus (GC 6257)” value ([2]; 5×10^5 CFU/mL) was 8 µg/mL (≈ 5.43 µM) and the “MIC Staphylococcus aureus (ATCC 29213)” value ([2]; 5×10^5 CFU/mL) was 16 µg/mL (≈ 10.9 µM). For the same compound, the “MIC Staphylococcus aureus (GC 1131)” value ([2]; 5×10^5 CFU/mL) was 16 µg/mL (≈ 10.9 µM), the “MIC Staphylococcus aureus (GC 3051)” value ([2]; 5×10^5 CFU/mL) was 16 µg/mL (≈ 10.9 µM) and the “MIC Staphylococcus aureus (GC 3053)” value ([2]; 5×10^5 CFU/mL) was 16 µg/mL (≈ 10.9 µM). For the same compound, the “MIC Staphylococcus aureus (GC 4541)” value ([2]; 5×10^5 CFU/mL) was 8 µg/mL (≈ 5.43 µM), the “MIC Staphylococcus aureus (GC 4542)” value ([2]; 5×10^5 CFU/mL) was 16 µg/mL (≈ 10.9 µM) and the “MIC Staphylococcus aureus (GC 4544)” value ([2]; 5×10^5 CFU/mL) was 16 µg/mL (≈ 10.9 µM). The “MIC Staphylococcus aureus (GC 4545)” value ([2]; 5×10^5 CFU/mL) was 16 µg/mL (≈ 10.9 µM), the “MIC Staphylococcus aureus-SMITH (GC 4543)” value ([2]; 5×10^5 CFU/mL) was 16 µg/mL (≈ 10.9 µM) and the “MIC Staphylococcus haemolyticus (GC 4546)” value ([2]; 5×10^5 CFU/mL) was 16 µg/mL (≈ 10.9 µM). For the same compound, the “MIC Staphylococcus aureus (ATCC 29213)” value ([2]; strain ATCC 29213) was 16 µg/mL (≈ 10.9 µM), the “MIC Staphylococcus aureus (GC 1131)” value ([2]; strain GC 1131) was 16 µg/mL (≈ 10.9 µM) and the “MIC Staphylococcus aureus (GC 3051)” value ([2]; strain GC 3051) was 16 µg/mL (≈ 10.9 µM). For the same compound, the “MIC Staphylococcus aureus (GC 3053)” value ([2]; strain GC 3053) was 16 µg/mL (≈ 10.9 µM), the “MIC Staphylococcus aureus (GC 4541)” value ([2]; strain GC 4541) was 8 µg/mL (≈ 5.43 µM) and the “MIC Staphylococcus aureus (GC 4542)” value ([2]; strain GC 4542) was 16 µg/mL (≈ 10.9 µM). For the same compound, the “MIC Staphylococcus aureus-SMITH (GC 4543)” value ([2]; strain GC 4543) was 16 µg/mL (≈ 10.9 µM), the “MIC Staphylococcus aureus (GC 4544)” value ([2]; strain GC 4544) was 16 µg/mL (≈ 10.9 µM) and the “MIC Staphylococcus aureus (GC 4545)” value ([2]; strain GC 4545) was 16 µg/mL (≈ 10.9 µM). For the same compound, the “MIC Staphylococcus haemolyticus (GC 4546)” value ([2]; strain GC 4546) was 16 µg/mL (≈ 10.9 µM), the “MIC Coagulase Negative Staphylococcus (GC 4547)” value ([2]; strain GC 4547) was 8 µg/mL (≈ 5.43 µM) and the “MIC Coagulase Negative Staphylococcus (GC 4548)” value ([2]; strain GC 4548) was 8 µg/mL (≈ 5.43 µM). For the same compound, the “MIC Coagulase Negative Staphylococcus (GC 4549)” value ([2]; strain GC 4549) was 8 µg/mL (≈ 5.43 µM), the “MIC Coagulase Negative Staphylococcus (GC 4551)” value ([2]; strain GC 4551) was 16 µg/mL (≈ 10.9 µM) and the “MIC Coagulase Negative Staphylococcus (GC 6257)” value ([2]; strain GC 6257) was 8 µg/mL (≈ 5.43 µM). The “MIC Streptococcus agalactiae (GC 4564)” value [3, 5] was 2 µg/mL (≈ 1.36 µM), the “MIC Streptococcus pneumoniae (ATCC 6301)” value [3, 5] was 1 µg/mL (≈ 0.679 µM) and the “MIC Streptococcus pneumoniae (GC 1894)” value [3, 5] was 0.25 µg/mL (≈ 0.17 µM). The “MIC Streptococcus pneumoniae (GC 4565)” value [3, 5] was 1 µg/mL (≈ 0.679 µM), the “MIC Streptococcus pyogenes (GC 4563)” value [3, 5] was 1 µg/mL (≈ 0.679 µM) and the “MIC Streptococcus pneumoniae (ATCC 6301)” value ([3]; strain ATCC 6301) was 1 µg/mL (≈ 0.679 µM). For the same compound, the “MIC Streptococcus pneumoniae (GC 1894)” value ([3]; strain GC 1894) was 0.25 µg/mL (≈ 0.17 µM), the “MIC Streptococcus pyogenes (GC 4563)” value ([3]; strain GC 4563) was 1 µg/mL (≈ 0.679 µM) and the “MIC Streptococcus agalactiae (GC 4564)” value ([3]; strain GC 4564) was 2 µg/mL (≈ 1.36 µM). For the same compound, the “MIC Streptococcus pneumoniae (GC 4565)” value ([3]; strain GC 4565) was 1 µg/mL (≈ 0.679 µM) and the “MIC Escherichi coli (GC 4560)” value [4] was 8 µg/mL (≈ 5.43 µM).
